Reference: article PMC6969166, “The molecular basis of pyrazinamide activity on Mycobacterium tuberculosis PanD” (Nature Communications, 2020)
“And” between values parts separate entries of the source, which are not always exact repeats. Identical values can stand only once. “Also recorded” adds a separate entry of the source. Like-named read-outs stand apart in the source and are kept apart here.

Key:
[1] = target: T1, Mtb PanD (Mycobacterium tuberculosis, UniProt P9WIL3); assay: biochemical; type: biochemical; conditions: for remaining activity at 312.5 µM / remaining activity at 625 µM / remaining activity at 1250 µM / remaining activity at 2500 µM / remaining activity at 5000 µM / remaining activity at 10000 µM / remaining activity at 20000 µM: read-out: Fractional Activity
T1 construct: The active protein consists of a β chain (Met1-Gly24) and an α chain (Pyr25 to ILE115); we observed the processed active enzyme after cleavage between Gly24 and Ser25; inferred from the pET21c(+) vector and HisTrap purification); made in house; host or cells: Escherichia coli BL21(DE3)

[2] = target: T1, Mtb PanD; assay: Isothermal titration calorimetry, wild type; type: binding; conditions: for ΔH / ΔS: mean
Experimental: ITC experiments were performed using a MicroCal iTC200 (GE). Both protein and ligands were in a buffer of 100 mM Tris, pH 7.5. The protein concentration in the cell was 0.5 mM, and the ligand concentration was 20 mM. The titration was performed at 20 °C. The data were analyzed with the Origin 7.0 software and fitted with a single-site binding model.

[3] = test system: Mtb cultures; conditions: cited from earlier work
[4] = test system: PanD; set-up: method as in PMID 23029336; conditions: cited from earlier work

T1 sequence (P9WIL3 1-24): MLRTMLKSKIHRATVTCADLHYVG
T1 sequence (P9WIL3 25-139): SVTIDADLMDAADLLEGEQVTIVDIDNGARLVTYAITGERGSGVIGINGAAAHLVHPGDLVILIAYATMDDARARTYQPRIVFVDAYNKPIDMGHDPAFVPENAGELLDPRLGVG

Compound | inhibition of Mtb PanD [1] | remaining activity at 312.5 µM ([1]; compound conc 0.3125 mM) [%] | remaining activity at 625 µM ([1]; compound conc 0.625 mM) [%] | remaining activity at 1250 µM ([1]; compound conc 1.25 mM) [%] | remaining activity at 2500 µM ([1]; compound conc 2.5 mM) [%] | remaining activity at 5000 µM ([1]; compound conc 5 mM) [%] | remaining activity at 10000 µM ([1]; compound conc 10 mM) [%] | remaining activity at 20000 µM ([1]; compound conc 20 mM) [%] | also measured
O=C(O)c1cnc(Cl)cn1 [5-Cl-POA] | no inhibition | 92.8 | 89.8 | 80.2 | 67.7 | 52.9 | 51.6 | 44.3 | –
O=C(O)c1cncc(Cl)n1 [6-Cl-POA, 6-chloropyrazinoic acid] | inhibitor of PanD | 81.8 | 69.3 | 51.7 | 35 | 22.9 | 19.8 | 8.91 | Kd ([2]; ITC, 20 °C, 100 mM Tris pH 7.5, single-site model, mean of separate experiments): 1.09 mM; ΔH ([2]; ITC, 20 °C, 100 mM Tris pH 7.5): −3300 (100) cal mol^−1; ΔS ([2]; ITC, 20 °C, 100 mM Tris pH 7.5): 2.2 (0.5) cal mol^−1 deg^−1; Kd ([2]; ITC, wt, single experiments): 1.09 mM and 1.14 mM and 1.05 mM; ΔS (cal/mol /deg) ([2]; ITC, wt, single experiments): 2.27 cal/mol /deg and 1.7 cal/mol /deg and 2.71 cal/mol /deg; Ki [1]: 1 mM; mode of inhibition [1]: competitive
O=C(O)c1cccnc1 [NA, nicotinic acid] | lack of inhibitory activity; also recorded: None of these compounds inhibited | – | – | – | – | – | – | – | binding in ITC ([2]; 100 mM Tris pH 7.5): no binding; remaining activity at 312.5 µM [1]: 101%; remaining activity at 625 µM [1]: 98.1%; remaining activity at 1250 µM [1]: 96.6%; remaining activity at 2500 µM [1]: 90.2%; remaining activity at 5000 µM [1]: 87.2%; remaining activity at 10000 µM [1]: 82.2%; remaining activity at 20000 µM [1]: 61.4%
O=C(O)c1cnccn1 [POA, pyrazinoic acid] | – | 81.2 | 66.4 | 52.9 | 34.8 | 21.6 | 13.4 | 7.44 | ΔH ([2]; ITC, 20 °C, 100 mM Tris pH 7.5): -4200 (200) cal mol^−1; ΔS ([2]; ITC, 20 °C, 100 mM Tris pH 7.5): 0.1 (0.7) cal mol^−1 deg^−1; mode of inhibition [1]: competitive with aspartate
NC(=O)c1cnccn1 [PZA, pyrazinamide] | lack of inhibitory activity; also recorded: None of these compounds inhibited | 104 | 105 | 101 | 104 | 101 | 98.7 | 91.5 | minimal inhibitory concentration ([3]; mildly acidic (<pH6), ref 2 (peer review file list)): 0.4-1.6 mM and 50 – 200 µg/ml; minimum inhibitory concentrations ([3]; mildly acidic pH): 400 to 1600 µM; activity against Mtb cultures ([3]; normal media): not active
N[C@@H](CC(=O)O)C(=O)O [aspartate, L-aspartate] | – | – | – | – | – | – | – | – | Km [1]: 1080 µM
O=C(O)C(O)C(O)C(=O)O (stereo not shown) [tartrate] | – | – | – | – | – | – | – | – | inhibitor of the enzyme [4]: known inhibitor
